Where no end group is shown, it is not given here. [ ]: non-standard residue; d: D form. hCit = NC(=O)NCCCC[C@H](N)C(=O)O
System: HLA-HHDII/DP4 mice
Test: Ex vivo IFNγ ELISpot after peptide immunisation, HHDII/DP4 mice
Type: in vivo, mouse
Conditions: for IFNγ ELISpot response: 3 immunisations with CpG/MPLA, day 21
Method: C57BL/6 mice (Charles River, UK), HLA-DR4 mice (Model #4149, Taconic, USA), HLA-A2/DR1 (HHDII/DR1, Pasteur Institute), HLA-A2.1+/+HLA-DP4+/+hCD4+/+ (HLA-HHDII/DP4) transgenic mice (EM: 02221, European Mouse Mutant Archive) described in patent WO2013/017545 A1 (EMMA repository, France) were used, aged between 8 and 12 weeks. Peptides were dissolved in PBS to 1 mg/ml and then emulsified (a series of dilutions) with CpG ODN 1826 and MPLA 6 μg/mouse of each (Invivogen, UK). Peptides (25 μg/mouse) were injected subcutaneously at the base of the tail. Mice were immunised at days 1, 7 and 14 for peptide immunisation. Spleens were removed for analysis at day 21 unless stated otherwise.
ELISpot assays were performed using murine IFNγ, IL-17 and IL-10 capture and detection reagents according to the manufacturer's instructions (Mabtech, Sweden). In brief, anti-IFNγ, IL-17 and IL-10 specific antibodies were coated onto wells of 96-well Immobilin-P plate. Synthetic peptides (at various concentrations) and 5×10^5 per well splenocytes were added to wells of the plate in quadruplicate Tumour target cells were added where relevant at 5×10^4/well in triplicate and plates incubated for 40 hrs at 37° C. After incubation, captured IFNγ, IL-10 and IL-17 were detected by biotinylated anti-IFNγ, IL-10 and IL-17 antibodies and developed with a streptavidin alkaline phosphatase and chromogenic substrate. Lipopolysaccharide (LPS; 5 μg/ml) was used as a positive control. For MHC blocking studies, anti-CD4 blocking antibody (GK1.5) or anti-CD4 blocking antibody (RPA-T4) for HHDII/DP4 mice which express human CD4 and anti-CD8 blocking antibody (2.43) from Bioxcell were used at 20 μg/ml. Spots were analysed and counted using an automated plate reader (Cellular Technologies Ltd).
Screening was performed to identify potential homocitrullinated ALDOA epitopes in transgenic HHDII/DP4 and HHDII/DR1 mice. Mice were immunised with pools of human homocitrullinated peptides. […] Each pool was administered as three immunisations containing 20 μg of each peptide and CpG/MPLA as an adjuvant. After 21 days the mice were culled and the immune responses to each peptide within the immunising pool were assessed by ex vivo ELISpot in HHDII/DP4 (FIG. 4b) and HHDII/DR1 mice (FIG. 4d). […] Our predictions therefore identified 3/5 peptides which could induce a T cell response. […] Of the responding peptides ALDOA 74-93 Hcit and 140-157 Hcit peptides are homologous in human and mice therefore these two peptides were selected for further investigation. Minimal IL-10 (FIG. 6b) or IL-17 (FIG. 6c) responses were seen to Aldolase peptides in HHDII/DP4 mice.
Using this combination of predictions, 5 CyK8 peptides containing homocitrulline were synthesised (Table 4). Screening was performed to identify potential homocitrullinated Cyk8 epitopes in transgenic HHDII/DP4. Mice were immunised with pools of human homocitrullinated peptides. […] Each pool was administered as three immunisations containing 20 μg of each peptide and CpG/MPLA as an adjuvant. After 21 days the mice were culled and the immune responses to each peptide within the immunising pool were assessed by ex vivo ELISpot in HHDII/DP4 (FIG. 10a). […] The responses to CyK8 101-120 Hcit, 112-131 Hcit, 182-201 Hcit, 371-388 Hcit and 381-399 Hcit immunisation were characterised for cross reactivity to the wt peptide sequence. […] Thus a key characteristic of immunogenic peptides is they express homocitrulline. All of these peptides (100%) were immunogenic. Thus a high predicted HLA-DP4 binding affinity (<30), the presence of homocitrulline residues in the core region, the peptide being amphipathic in nature with a predominantely spiral conformational structure upon 3D modelling, and the existence of homology between the mouse and human sequences defines immunogenicity. When this model was applied retrospectively to include the vimentin and ALDOA peptides 8/9 (88%) were correctly predicted. […]

Substance	IFNγ ELISpot response	IFNγ response in presence of CD4 blocking antibody	cross reactivity of Hcit response to wt peptide	IFNγ response in presence of CD8 blocking antibody
EIN-hcit-RTEMENEFVLI-hcit-hcit-DVDE (EIN[hCit]RTEMENEFVLI[hCit][hCit]DVDE) [Cyk8 182-202 Hcit]	stimulation of IFNγ responses	–	–	–
HACTQ-hcit-FSH(N)EEIAMATVTA (HACTQ[hCit]FSHNEEIAMATVTA; not fully specified; printed as HACTQ-hcit-FSH(N)EEIAMATVTA) [Aldolase A 238-256 Hcit]	stimulation of IFNγ responses	–	–	–
IGGVILFHETLYQ-hcit-ADDGRP (IGGVILFHETLYQ[hCit]ADDGRP) [Aldolase A 74-93 Hcit]	stimulation of IFNγ responses	significantly reduced	limited responses	–
KFASFID-Hcit-VRFLEQQN-Hcit-MLE (KFASFID[hCit]VRFLEQQN[hCit]MLE) [Cyk8 101-120 Hcit]	stimulation of IFNγ responses	inhibited	–	–
LEQQN-hcit-MLET-hcit-WSLLQQQ-hcit-T (LEQQN[hCit]MLET[hCit]WSLLQQQ[hCit]T) [Cyk8 112-131 Hcit]	stimulation of IFNγ responses	not with CD4 blocking antibody	significantly higher	inhibited
LREYQELMNV-hcit-LALDIEI (LREYQELMNV[hCit]LALDIEI) [Cyk8 371-388 Hcit]	–	inhibited	significantly higher	–
NYID-Hcit-VRFLEQQN-Hcit-ILLAEL (NYID[hCit]VRFLEQQN[hCit]ILLAEL) [Vimentin 116-135 Hcit]	no IFNγ responses were observed	–	–	–
hcit-DGADFA-hcit-WRCVL-hcit-IGEH ([hCit]DGADFA[hCit]WRCVL[hCit]IGEH) [Aldolase A 140-157 Hcit]	stimulation of IFNγ responses	significantly reduced	limited responses	–
hcit-LALDIEIATYR-hcit-LLEGEE ([hCit]LALDIEIATYR[hCit]LLEGEE) [Cyk8 381-399 Hcit]	stimulation of IFNγ responses	–	significantly higher	–
